The source of these data is patent US20190175526A1, “METHODS FOR TREATING CANCER” (Macau University of Science and Technology, priority 2017, published 2019).

The structures appear in SMILES notation.

For one assay, the system named is A549 cells. The assay can be described thus: MTT cell viability assay, A549 cells. The format is cell-based. The settings on record: Homo sapiens, cell line A459 (A549), 72 hours. The procedure:
(§1) Cell lines A549 and H460 were purchased from ATCC and cultivated in RPMI 1640 medium supplemented with 10% FBS (Gibco, Big Cabin, Okla., Me., USA), 1% penicillin-streptomycin solution and maintained at 37° C. in a CO2 incubator with 5% CO2. Compound 3039-0164 was dissolved in DMSO and stored at −40° C. Cells were seeded on a 96-well microplate with 3,000 cells/well, cultured overnight for cell adhesion, and treated with DMSO or various concentrations of compound 3039-0164 for 72 hours. Then, each well was added with 10 μL MTT (5 mg/mL) and incubated for 4 hours at […], followed by adding 100 μL acidic isopropanol (10% SDS and 0.01 mol/L HCl). Finally, an absorbance at 570 nm was measured by a microplate reader (Tecan, Morrisville, N.C., USA). Cell viability was calculated relative to untreated controls, with results based on at least three independent experiments. Two human non-small cell lung cancer (NSCLC) cell lines, A549 and H460, were treated with an increasing concentration (0, 2.5, 5.0, 7.5 and 10.0 μM) of compound 3039-0164 for 72 hours, and then cell viability was determined by MTT assay. As shown in FIG. 2a and FIG. 2b, the cell viability of A549 and H460 were both decreased by compound 3039-0164 in a dose-dependent manner.
On the technique in general: Formazan colour is commonly taken as a measure of viable cells.

A further assay has as its system H460 cells. The assay can be described thus: MTT cell viability assay, H460 cells. The format is cell-based. The settings on record: Homo sapiens, NCI-H460, cell line H460, 72 hours. The procedure:
as §1

In the next assay the target is PRMT5 (Homo sapiens, UniProt O14744). The assay can be described thus: PRMT5 enzymatic assay (AlphaLISA). The following applies: 60 minutes at room temperature, read-out: IC50, PRMT5 enzyme activity. The format is biochemical. The procedure:
PRMT5 enzymatic assay was carried out by Shanghai ChemPartner Co. (998 Halei Road, Pudong New Area, Shanghai, 201203, China). To measure IC50 values, 10 concentrations of compound 3039-0164 were tested. PRMT5 was purchased from BPS bioscience (Cat. No. 51045), and SAM/SAH were purchased from Sigma. Inc (Cat. No. A7007-100MG and No. A9384-25MG). Compound 3039-0164 was prepared as 10 mM stock in DMSO and diluted to final concentration in DMSO. PRMT5 and substrates were incubated with indicated concentrations of compounds in a 384-well plate for 60 minutes at room temperature. Then, acceptor and donor solutions were added to label the residual substrates of PRMT5. The labeling process lasted for 60 minutes at room temperature, followed by reading endpoint with EnSpire Plate Reader with Alpha mode (PerkinElmer). To investigate the influence of compound 3039-0164 on enzymatic activity and its “on-target” effect, AlphaLISA assay was carried out.
A general note: Alpha assays give light when donor and acceptor beads are brought close together.

PRMT5, sequence (O14744 2-637 limits assumed): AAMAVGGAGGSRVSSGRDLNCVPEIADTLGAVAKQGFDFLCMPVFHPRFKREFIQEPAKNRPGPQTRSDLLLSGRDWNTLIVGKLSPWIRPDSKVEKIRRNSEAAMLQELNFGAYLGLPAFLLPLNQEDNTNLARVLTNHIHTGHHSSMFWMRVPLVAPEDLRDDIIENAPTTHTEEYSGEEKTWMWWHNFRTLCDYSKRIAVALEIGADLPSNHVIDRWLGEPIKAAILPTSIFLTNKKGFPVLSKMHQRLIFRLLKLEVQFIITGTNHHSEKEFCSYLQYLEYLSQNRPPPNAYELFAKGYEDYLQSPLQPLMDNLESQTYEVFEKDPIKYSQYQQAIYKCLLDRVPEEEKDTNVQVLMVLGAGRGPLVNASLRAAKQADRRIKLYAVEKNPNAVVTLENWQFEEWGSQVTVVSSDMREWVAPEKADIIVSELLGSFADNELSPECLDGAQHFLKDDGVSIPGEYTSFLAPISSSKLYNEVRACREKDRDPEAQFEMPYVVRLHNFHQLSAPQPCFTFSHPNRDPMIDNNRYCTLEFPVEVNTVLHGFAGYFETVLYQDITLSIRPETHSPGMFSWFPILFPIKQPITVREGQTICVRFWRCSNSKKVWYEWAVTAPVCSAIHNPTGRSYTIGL
PRMT5, sequence (Q9BQA1 2-342 partner limits assumed): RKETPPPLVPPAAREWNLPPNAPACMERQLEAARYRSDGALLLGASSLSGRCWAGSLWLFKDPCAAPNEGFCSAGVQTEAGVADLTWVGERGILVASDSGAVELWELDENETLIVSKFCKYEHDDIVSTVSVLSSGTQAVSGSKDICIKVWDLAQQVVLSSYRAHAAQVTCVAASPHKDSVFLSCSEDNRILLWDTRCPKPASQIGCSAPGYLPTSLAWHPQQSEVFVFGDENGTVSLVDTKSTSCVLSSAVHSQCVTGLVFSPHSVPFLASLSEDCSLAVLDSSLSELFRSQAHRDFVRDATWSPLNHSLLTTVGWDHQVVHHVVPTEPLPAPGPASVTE

On to `O=C1c2ccccc2C(=O)c2c(NCCCN(CCO)CCO)cccc21` [compound 3039-0164], for which the IC50 in the assay with A549 cells stood at 7.79 ± 1.8 µM; in the assay on H460 cells it was 8.64 ± 1.46 µM; at PRMT5, 63.2 ± 4.5 µM.

As a reminder, the IC50 is the concentration needed to halve the response being measured.
